Laboratory results: the supplement of paper PMC10307832

Legend:
Assay in all cases: relative viability (nuclei count vs DMSO), 5 days (fraction); higher = more cells survive
[1] = compound: O[C@@H](COc1cccc2ncccc12)CN1CCN([C@@H]2c3ccccc3[C@@H]3[C@H](c4ccccc42)C3(F)F)CC1 [Zosuquidar] + Cc1nc(NC(=O)N2CCC[C@H]2C(N)=O)sc1-c1ccnc(C(C)(C)C(F)(F)F)c1 [Alpelisib] (partner 2 µM)
Summary of the method: (§1)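 After 5 days of treatment, lung cancer cells in 1536-well plates were fixed and stained in a single step (final 0.05% Triton X-100, 1% formaldehyde, 1 ug/ml Hoechst) and their nuclei counted on 4× images. Treatment had been applied by pin tool the day after seeding as one drug alone or as a fixed anchor-drug dose with five library-drug doses (not always all listed) in √10 steps. Relative viability is the nuclei count of treated wells divided by that of vehicle wells, and values are medians of duplicate plates.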

[2] = compound: O[C@@H](COc1cccc2ncccc12)CN1CCN([C@@H]2c3ccccc3[C@@H]3[C@H](c4ccccc42)C3(F)F)CC1 [Zosuquidar] + COc1cccc2cc(-c3nc([C@H]4CC[C@H](C(=O)O)CC4)n4ncnc(N)c34)[nH]c12 [OSI-027] (partner 0.5 µM)
Summary of the method: as §1

[3] = compound: O[C@@H](COc1cccc2ncccc12)CN1CCN([C@@H]2c3ccccc3[C@@H]3[C@H](c4ccccc42)C3(F)F)CC1 [Zosuquidar] + C[C@@H](Oc1cc(-c2cnn(C3CCNCC3)c2)cnc1N)c1c(Cl)ccc(F)c1Cl [Crizotinib] (partner 1 µM)
Summary of the method: as §1

[4] = compound: O[C@@H](COc1cccc2ncccc12)CN1CCN([C@@H]2c3ccccc3[C@@H]3[C@H](c4ccccc42)C3(F)F)CC1 [Zosuquidar] + COc1cc2c(Oc3ccc(NC(=O)C4(C(=O)Nc5ccc(F)cc5)CC4)cc3F)ccnc2cc1OCCCN1CCOCC1 [Foretinib] (partner 0.25 µM)
Summary of the method: as §1

Cell Line | relative viability ([1]; first compound 0.01 µM) | relative viability ([1]; first compound 0.03162 µM) | relative viability ([1]; first compound 0.1 µM) | relative viability ([1]; first compound 0.3162 µM) | relative viability ([1]; first compound 1 µM) | relative viability ([2]; first compound 0.01 µM) | relative viability ([2]; first compound 0.03162 µM) | relative viability ([2]; first compound 0.1 µM) | relative viability ([2]; first compound 0.3162 µM) | relative viability ([2]; first compound 1 µM) | relative viability ([3]; first compound 0.01 µM) | relative viability ([3]; first compound 0.03162 µM) | relative viability ([3]; first compound 0.1 µM) | relative viability ([3]; first compound 0.3162 µM) | relative viability ([3]; first compound 1 µM) | relative viability ([4]; first compound 0.01 µM) | relative viability ([4]; first compound 0.03162 µM) | relative viability ([4]; first compound 0.1 µM) | relative viability ([4]; first compound 0.3162 µM) | relative viability ([4]; first compound 1 µM)
HOP-62 | 1.05 | 0.79 | 0.907 | 1.08 | 0.988 | 0.768 | 0.833 | 0.817 | 0.865 | 0.906 | 0.829 | 1.01 | 0.85 | 1 | 0.864 | 1.09 | 1.25 | 1.01 | 1.1 | 1.08
LC-2-ad | 0.892 | 0.938 | 0.817 | 0.886 | 0.928 | 0.865 | 0.814 | 0.829 | 1.09 | 0.864 | 0.443 | 0.508 | 0.451 | 0.449 | 0.46 | 0.975 | 0.933 | 0.862 | 1.03 | 0.931
LCLC-97TM1 | 0.187 | 0.237 |  | 0.224 | 0.234 | 0.469 | 0.507 | 0.366 | 0.502 | 0.641 | 0.389 | 0.327 |  | 0.429 | 0.339 | 0.922 | 0.929 | 0.9 | 1.01 | 0.974
LCLC-103H | 1.02 | 1.12 | 1.01 | 1.02 | 0.926 | 0.474 | 0.469 | 0.402 | 0.478 | 0.528 | 1.07 | 1.09 | 0.991 | 0.892 | 0.989 | 0.694 | 0.678 | 0.698 | 0.844 | 0.809
LK-2 | 1.29 | 1.26 | 0.939 | 1.08 | 1.02 | 0.172 | 0.216 | 0.21 | 0.209 | 0.174 | 0.237 | 0.218 | 0.28 | 0.274 | 0.224 | 1.32 | 1.03 | 1.3 | 1.05 | 1.23
LOU-NH91 | 0.702 | 0.717 | 0.6 | 0.718 | 0.725 | 0.623 | 0.664 |  | 0.781 | 0.713 | 0.733 | 0.738 | 0.691 | 0.736 | 0.736 | 0.882 | 0.857 |  | 0.936 | 0.91
LU99A | 0.472 | 0.507 | 0.475 | 0.617 | 0.529 | 0.279 | 0.276 | 0.253 | 0.322 | 0.288 | 0.499 | 0.671 | 0.484 | 0.607 | 0.571 | 0.784 | 0.931 | 0.813 | 0.855 | 0.814
LXF-289 | 0.994 | 1.04 | 0.97 | 1.02 | 1.01 | 0.744 | 0.862 | 0.741 | 0.856 | 0.915 | 0.768 | 0.861 | 0.799 | 0.816 | 0.876 | 0.956 | 1.02 | 0.94 | 1.02 | 0.968
